Data reported in patent US20080085915A1, “COMPOUNDS AND METHODS FOR THE TREATMENT OF GASTROINTESTINAL AND CENTRAL NERVOUS SYSTEM DISORDERS” (priority 2006, published 2008).

Experiments:
5-HT4 receptor = biological target: T1, 5-HT4 receptor (Cavia porcellus, UniProt O70528); test: 5-HT4 Receptor Binding - Guinea Pig Striatum; settings: radioligand [3H]GR113808 (0.70 nM)
T1 construct: from tissue; host or cells: guinea pig striatum
Text: The 5-HT4 receptor is known to be the major receptor subtype involved in the prokinetic activity of cisapride in the gut.

[1] = biological target: T2, human IKr (hERG K+ channels) (Homo sapiens, UniProt Q12809); test: Inhibition of IKr activity, whole cell patch-clamp in HEK-293 cells expressing hERG K+ channels; type: cell-based; settings: data normalized to % control tail IKr
T2 construct: expressed in transfected cells; host or cells: HEK-293
Method: The rapidly activating delayed rectifier potassium (K+) current in humans (human IKr) is a K+ channel that is encoded by the human-ether-a-go-go-related gene (hERG). Cisapride is known to produce QT interval prolongations via a blockade of IKr, and it was therefore of interest to determine whether compounds of the invention have important inhibitory effects on human IKr. The test system was mammalian HEK-293 cells expressing the hERG K+ channels, in which the potassium current was measured by whole cell patch-clamp technique.

[2] = in vivo; cited from earlier work
[3] = between July 1993 and December 1999; cited from earlier work

T2 sequence (Q12809 whole entry): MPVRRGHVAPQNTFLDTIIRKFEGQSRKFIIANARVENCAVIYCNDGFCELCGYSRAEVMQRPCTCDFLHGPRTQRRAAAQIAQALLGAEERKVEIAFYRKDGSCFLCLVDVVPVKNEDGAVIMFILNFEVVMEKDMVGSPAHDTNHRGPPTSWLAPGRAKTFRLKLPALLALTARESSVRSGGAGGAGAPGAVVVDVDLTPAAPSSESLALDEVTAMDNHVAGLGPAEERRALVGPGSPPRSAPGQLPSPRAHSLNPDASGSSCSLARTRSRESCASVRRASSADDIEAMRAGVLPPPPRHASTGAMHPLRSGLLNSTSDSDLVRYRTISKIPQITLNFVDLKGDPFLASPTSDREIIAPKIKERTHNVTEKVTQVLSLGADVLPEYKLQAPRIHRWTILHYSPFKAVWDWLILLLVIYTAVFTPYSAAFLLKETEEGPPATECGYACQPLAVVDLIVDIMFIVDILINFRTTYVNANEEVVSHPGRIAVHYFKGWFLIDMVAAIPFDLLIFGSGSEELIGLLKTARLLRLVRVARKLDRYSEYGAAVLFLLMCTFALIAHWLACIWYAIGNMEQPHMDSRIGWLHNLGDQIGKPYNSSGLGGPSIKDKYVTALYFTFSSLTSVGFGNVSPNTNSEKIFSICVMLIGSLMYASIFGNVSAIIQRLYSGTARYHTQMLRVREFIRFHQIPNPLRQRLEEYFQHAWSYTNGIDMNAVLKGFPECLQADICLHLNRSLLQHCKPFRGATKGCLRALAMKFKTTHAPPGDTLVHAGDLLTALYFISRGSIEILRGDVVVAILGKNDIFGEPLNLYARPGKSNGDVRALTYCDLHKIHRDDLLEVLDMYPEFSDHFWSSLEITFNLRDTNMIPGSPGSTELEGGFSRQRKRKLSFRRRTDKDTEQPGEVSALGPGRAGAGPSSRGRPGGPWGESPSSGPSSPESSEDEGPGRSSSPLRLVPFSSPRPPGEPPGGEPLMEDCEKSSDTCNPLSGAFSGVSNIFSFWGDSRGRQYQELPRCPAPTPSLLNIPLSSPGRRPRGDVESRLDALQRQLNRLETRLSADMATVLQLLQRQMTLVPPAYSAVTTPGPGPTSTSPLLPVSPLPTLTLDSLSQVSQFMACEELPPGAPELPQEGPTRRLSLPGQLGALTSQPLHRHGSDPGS
T1 sequence (O70528 whole entry): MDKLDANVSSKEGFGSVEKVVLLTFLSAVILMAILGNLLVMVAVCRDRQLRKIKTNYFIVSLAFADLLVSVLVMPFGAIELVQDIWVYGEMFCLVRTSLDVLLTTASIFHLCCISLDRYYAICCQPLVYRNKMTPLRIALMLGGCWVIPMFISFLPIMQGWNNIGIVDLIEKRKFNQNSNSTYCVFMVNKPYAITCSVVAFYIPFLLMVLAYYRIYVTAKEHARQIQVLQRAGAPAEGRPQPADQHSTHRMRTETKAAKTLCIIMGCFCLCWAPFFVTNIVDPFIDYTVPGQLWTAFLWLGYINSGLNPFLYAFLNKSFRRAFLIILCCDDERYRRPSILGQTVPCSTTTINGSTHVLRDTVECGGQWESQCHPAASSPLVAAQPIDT

SMILES | Ki (5-HT4 receptor) [nM] | IC50 [1] [nM] | also measured
COc1cc(N)c(Cl)cc1C(=O)N[C@@H]1CCN(CCN(C)Cc2ccc(C(=O)OCCN3CCCC3)cc2)C[C@@H]1OC [Compound 10, 2-(pyrrolidin-1-yl)ethyl 4-(((2-((3S,4R)-4-(4-amino-5-chloro-2-methoxybenzamido)-3-methoxypiperidin-1-yl)ethyl)(methyl)amino)methyl)benzoate] | < 50 | > 25000 | –
COc1cc(N)c(Cl)cc1C(=O)N[C@@H]1CCN(CCN(C)Cc2ccc(C(=O)OC3CCN(C)CC3)cc2)C[C@@H]1OC [Compound 11, 1-methylpiperidin-4-yl 4-(((2-((3S,4R)-4-(4-amino-5-chloro-2-methoxybenzamido)-3-methoxypiperidin-1-yl)ethyl)(methyl)amino)methyl)benzoate] | < 50 | – | –
COc1cc(N)c(Cl)cc1C(=O)N[C@@H]1CCN(CCN(C)Cc2ccc(C(=O)OCCN3CCOCC3)cc2)C[C@@H]1OC [Compound 12, 2-morpholinoethyl 4-(((2-((3S,4R)-4-(4-amino-5-chloro-2-methoxybenzamido)-3-methoxypiperidin-1-yl)ethyl)(methyl)amino)methyl)benzoate] | 50 to 500 | – | –
COc1cc(N)c(Cl)cc1C(=O)N[C@@H]1CCN(CCNCc2ccc(C(=O)O)cc2)C[C@@H]1OC [Compound 23, 4-((2-((3S,4R)-4-(4-amino-5-chloro-2-methoxybenzamido)-3-methoxypiperidin-1-yl)ethylamino)methyl)benzoic acid] | > 500 | – | –
COc1cc(N)c(Cl)cc1C(=O)N[C@@H]1CCN(CCNCc2ccc(C(=O)OCCCO)cc2)C[C@@H]1OC [Compound 24, 3-hydroxypropyl 4-((2-((3S,4R)-4-(4-amino-5-chloro-2-methoxybenzamido)-3-methoxypiperidin-1-yl)ethylamino)methyl)benzoate] | 50 to 500 | – | –
COc1cc(N)c(Cl)cc1C(=O)N[C@@H]1CCN(CCNCc2ccc(C(=O)OC3CCNCC3)cc2)C[C@@H]1OC [Compound 25, piperidin-4-yl 4-((2-((3S,4R)-4-(4-amino-5-chloro-2-methoxybenzamido)-3-methoxypiperidin-1-yl)ethylamino)methyl)benzoate] | < 50 | > 25000 | –
COc1cc(N)c(Cl)cc1C(=O)N[C@@H]1CCN(CCNC(=O)c2ccc(C(=O)O)cc2)C[C@@H]1OC [Compound 33, 4-(2-((3S,4R)-4-(4-amino-5-chloro-2-methoxybenzamido)-3-methoxypiperidin-1-yl)ethylcarbamoyl)benzoic acid] | > 500 | > 25000 | –
COc1cc(N)c(Cl)cc1C(=O)N[C@@H]1CCN(CCNC(=O)c2ccc(C(=O)OC3CCNCC3)cc2)C[C@@H]1OC [Compound 34, piperidin-4-yl 4-(2-((3S,4R)-4-(4-amino-5-chloro-2-methoxybenzamido)-3-methoxypiperidin-1-yl)ethylcarbamoyl)benzoate] | < 50 | – | –
COc1cc(N)c(Cl)cc1C(=O)N[C@@H]1CCN(CC(=O)Nc2ccc(CC(=O)O)cc2)C[C@@H]1OC [Compound 45, 2-(4-(2-((3S,4R)-4-(4-amino-5-chloro-2-methoxybenzamido)-3-methoxypiperidin-1-yl)acetamido)phenyl)acetic acid] | > 500 | > 25000 | –
CCOC(=O)Cc1ccc(NC(=O)CN2CC[C@@H](NC(=O)c3cc(Cl)c(N)cc3OC)[C@@H](OC)C2)cc1 [Compound 46, ethyl 2-(4-(2-((3S,4R)-4-(4-amino-5-chloro-2-methoxybenzamido)-3-methoxypiperidin-1-yl)acetamido)phenyl)acetate] | < 50 | – | –
COc1cc(N)c(Cl)cc1C(=O)N[C@@H]1CCN(CC(=O)Nc2ccc(CC(=O)OC3CCN(C)CC3)cc2)C[C@@H]1OC [Compound 47, 1-methylpiperidin-4-yl 2-(4-(2-((3S,4R)-4-(4-amino-5-chloro-2-methoxybenzamido)-3-methoxypiperidin-1-yl)acetamido)phenyl)acetate] | < 50 | > 25000 | –
COc1cc(N)c(Cl)cc1C(=O)N[C@@H]1CCN(CC(=O)Nc2ccc(CC(=O)OCCCO)cc2)C[C@@H]1OC [Compound 48, 3-hydroxypropyl 2-(4-(2-((3S,4R)-4-(4-amino-5-chloro-2-methoxybenzamido)-3-methoxypiperidin-1-yl)acetamido)phenyl)acetate] | < 50 | 10000 to 25000 | –
COc1cc(N)c(Cl)cc1C(=O)N[C@@H]1CCN(CC(=O)Nc2ccc(CC(=O)OC3CN4CCC3CC4)cc2)C[C@@H]1OC (stereo partly drawn) [Compound 49, quinuclidin-3-yl 2-(4-(2-((3S,4R)-4-(4-amino-5-chloro-2-methoxybenzamido)-3-methoxypiperidin-1-yl)acetamido)phenyl)acetate] | < 50 | – | –
COc1cc(N)c(Cl)cc1C(=O)N[C@@H]1CCN(CC(=O)Nc2ccc(O)cc2)C[C@@H]1OC [Compound 59, 4-amino-5-chloro-N-((3S,4R)-1-(2-(4-hydroxyphenylamino)-2-oxoethyl)-3-methoxypiperidin-4-yl)-2-methoxybenzamide] | < 50 | – | –
COc1cc(N)c(Cl)cc1C(=O)N[C@@H]1CCN(CC(=O)Nc2ccc(OC(C)=O)cc2)C[C@@H]1OC [Compound 60, 4-(2-((3S,4R)-4-(4-amino-5-chloro-2-methoxybenzamido)-3-methoxypiperidin-1-yl)acetamido)phenyl acetate] | < 50 | – | –
COc1cc(N)c(Cl)cc1C(=O)N[C@@H]1CCN(CCCc2ccc(C(=O)O)cc2)C[C@@H]1OC [Compound 66, 4-(3-((3S,4R)-4-(4-amino-5-chloro-2-methoxybenzamido)-3-methoxypiperidin-1-yl)propyl)benzoic acid] | > 500 | > 25000 | –
COc1cc(N)c(Cl)cc1C(=O)N[C@@H]1CCN(CCCc2ccc(C(=O)OCCN3CCOCC3)cc2)C[C@@H]1OC [Compound 67, 2-morpholinoethyl 4-(3-((3S,4R)-4-(4-amino-5-chloro-2-methoxybenzamido)-3-methoxypiperidin-1-yl)propyl)benzoate] | < 50 | – | –
COc1cc(N)c(Cl)cc1C(=O)N[C@@H]1CCN(CCCc2ccc(C(=O)OCCN3CCCC3)cc2)C[C@@H]1OC [Compound 68, 2-(pyrrolidin-1-yl)ethyl 4-(3-((3S,4R)-4-(4-amino-5-chloro-2-methoxybenzamido)-3-methoxypiperidin-1-yl)propyl)benzoate] | < 50 | – | –
COc1cc(N)c(Cl)cc1C(=O)N[C@@H]1CCN(CCCc2ccc(C(=O)OC3CCN(C)CC3)cc2)C[C@@H]1OC [Compound 69, 1-methylpiperidin-4-yl 4-(3-((3S,4R)-4-(4-amino-5-chloro-2-methoxybenzamido)-3-methoxypiperidin-1-yl)propyl)benzoate] | < 50 | – | –
COc1cc(N)c(Cl)cc1C(=O)N[C@@H]1CCN(CC(=O)Nc2ccc(C(=O)OCCO)cc2)C[C@@H]1OC [Compound 93, 2-hydroxyethyl 4-(2-((3S,4R)-4-(4-amino-5-chloro-2-methoxybenzamido)-3-methoxypiperidin-1-yl)acetamido)benzoate] | < 50 | > 25000 | –
COc1cc(N)c(Cl)cc1C(=O)N[C@@H]1CCN(CC(=O)Nc2ccc(C(=O)OCC(N)=O)cc2)C[C@@H]1OC [Compound 94, 2-amino-2-oxoethyl 4-(2-((3S,4R)-4-(4-amino-5-chloro-2-methoxybenzamido)-3-methoxypiperidin-1-yl)acetamido)benzoate] | < 50 | 5000 to 10000 | –
COc1cc(N)c(Cl)cc1C(=O)N[C@@H]1CCN(CC(=O)Nc2ccc(C(=O)OCCN3CCNCC3)cc2)C[C@@H]1OC [Compound 95, 2-(piperazin-1-yl)ethyl 4-(2-((3S,4R)-4-(4-amino-5-chloro-2-methoxybenzamido)-3-methoxypiperidin-1-yl)acetamido)benzoate] | < 50 | – | –
COc1cc(N)c(Cl)cc1C(=O)NC1CCN(CCCOc2ccc(F)cc2)CC1OC (stereo not shown) [cisapride] | – | – | part of dose metabolized by oxidative N-dealkylation or aromatic hydroxylation [2]: More than 90%; deaths reported [3]: 80; serious cardiac arrhythmias reportedly associated [3]: at least 341
